Columns and labels:
[1] = human, four-donor-derived monolayer models (Supplementary Fig. 8a)
[2] = tested on: human duodenal organoid-derived monolayer model
[3] = tested on: human duodenal organoid-derived monolayer model; assay: FaSSIF tolerability assay with lucifer yellow; assay type: in vitro ADME; details: FaSSIF pH 6.5 apical, 2 h; within individual experiments and inter-experiments
[4] = tested on: UDP-glucuronosyltransferase (UGT); assay: Raloxifene permeability and metabolizing assay; assay type: in vitro ADME, human; details: 5 μM raloxifene
[5] = target: T1, Carboxylesterase 2 (CES2) (Homo sapiens, UniProt O00748); assay: Irinotecan metabolizing assay; assay type: in vitro ADME; details: 10 μM irinotecan, 20 μM loperamide, 3 h
T1 sequence (O00748 27-559): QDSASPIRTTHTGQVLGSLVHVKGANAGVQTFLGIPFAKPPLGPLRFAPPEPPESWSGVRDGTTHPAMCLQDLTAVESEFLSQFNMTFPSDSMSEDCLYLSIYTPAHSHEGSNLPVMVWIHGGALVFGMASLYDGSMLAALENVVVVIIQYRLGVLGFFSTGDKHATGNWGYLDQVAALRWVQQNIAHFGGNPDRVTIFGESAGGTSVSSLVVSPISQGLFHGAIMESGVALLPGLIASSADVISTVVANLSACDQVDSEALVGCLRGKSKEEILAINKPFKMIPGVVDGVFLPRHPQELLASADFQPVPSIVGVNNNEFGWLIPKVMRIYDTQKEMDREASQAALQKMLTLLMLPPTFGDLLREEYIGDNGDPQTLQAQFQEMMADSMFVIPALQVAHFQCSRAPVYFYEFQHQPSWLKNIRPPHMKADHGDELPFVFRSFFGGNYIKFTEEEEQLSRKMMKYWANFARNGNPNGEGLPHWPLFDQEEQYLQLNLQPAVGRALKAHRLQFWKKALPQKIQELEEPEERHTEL

P-gp = P-gp (Homo sapiens, UniProt P08183); assay: Efflux drug transporter assay with digoxin; details: 10 μM digoxin, 10 μM inhibitor
Sequence of P-gp (P08183 whole entry): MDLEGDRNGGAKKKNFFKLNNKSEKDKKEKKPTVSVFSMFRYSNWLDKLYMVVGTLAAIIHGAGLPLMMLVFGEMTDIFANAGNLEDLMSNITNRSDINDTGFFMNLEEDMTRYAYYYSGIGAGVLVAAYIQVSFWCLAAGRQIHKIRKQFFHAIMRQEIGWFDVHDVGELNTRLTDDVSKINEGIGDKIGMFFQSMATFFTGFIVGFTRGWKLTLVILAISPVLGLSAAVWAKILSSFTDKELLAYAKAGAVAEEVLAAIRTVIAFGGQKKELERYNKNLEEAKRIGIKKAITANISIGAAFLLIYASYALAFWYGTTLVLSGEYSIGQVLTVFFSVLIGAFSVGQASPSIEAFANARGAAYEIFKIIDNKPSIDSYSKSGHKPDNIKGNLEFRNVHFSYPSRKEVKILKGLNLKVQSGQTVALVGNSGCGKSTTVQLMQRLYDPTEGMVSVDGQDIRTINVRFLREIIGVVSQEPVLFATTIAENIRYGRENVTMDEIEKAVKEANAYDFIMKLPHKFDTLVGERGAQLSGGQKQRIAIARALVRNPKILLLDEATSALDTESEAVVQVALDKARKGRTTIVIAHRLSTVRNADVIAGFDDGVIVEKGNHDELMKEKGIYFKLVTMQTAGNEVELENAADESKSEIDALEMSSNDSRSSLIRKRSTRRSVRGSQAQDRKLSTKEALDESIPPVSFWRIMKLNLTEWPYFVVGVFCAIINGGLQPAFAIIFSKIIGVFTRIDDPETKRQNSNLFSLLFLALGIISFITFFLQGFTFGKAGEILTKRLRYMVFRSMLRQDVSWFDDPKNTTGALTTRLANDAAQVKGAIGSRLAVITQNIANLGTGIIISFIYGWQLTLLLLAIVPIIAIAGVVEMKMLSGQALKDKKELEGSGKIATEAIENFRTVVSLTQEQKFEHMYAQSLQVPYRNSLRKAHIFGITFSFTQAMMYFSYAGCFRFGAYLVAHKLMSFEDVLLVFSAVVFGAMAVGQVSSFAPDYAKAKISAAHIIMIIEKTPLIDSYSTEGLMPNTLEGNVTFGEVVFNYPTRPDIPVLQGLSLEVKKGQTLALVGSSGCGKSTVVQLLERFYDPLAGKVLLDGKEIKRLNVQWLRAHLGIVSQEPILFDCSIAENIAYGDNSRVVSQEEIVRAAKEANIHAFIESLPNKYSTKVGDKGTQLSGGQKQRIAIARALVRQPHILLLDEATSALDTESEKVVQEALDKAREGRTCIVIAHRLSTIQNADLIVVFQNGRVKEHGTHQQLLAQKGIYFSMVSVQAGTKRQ

Molecule | Papp at 10 μM [1] [×10⁻⁶ cm/s] | also measured
Nn1nnc2ccccc21 [ABT, 1-aminobenzotriazole] | – | Effect on amount of midazolam metabolites [2]: significantly decreased; Effect on midazolam permeability [2]: significantly enhanced
Cc1cc(=O)n(-c2ccccc2)n1C [Antipyrine] | > 1 | –
CC(C(=O)O)c1cccc(C(=O)c2ccccc2)c1 (stereo not drawn) [Ketoprofen] | > 1 | –
lucifer yellow | – | Papp of lucifer yellow [3]: below 1.0 × 10^–6 cm/s
O=C(c1ccc(OCCN2CCCCC2)cc1)c1c(-c2ccc(O)cc2)sc2cc(O)ccc12 [Raloxifene] | – | Metabolism by UGT [4]: mostly found to be metabolized to glucuronide
CN(C)C(=O)C(CCN1CCC(O)(c2ccc(Cl)cc2)CC1)(c1ccccc1)c1ccccc1 [loperamide] | – | Effect on generation of SN-38 from irinotecan [5]: significantly inhibited
CCC1=C(C)CN(C(=O)NCCc2ccc(S(=O)(=O)NC(=O)N[C@H]3CC[C@H](C)CC3)cc2)C1=O [Glimepiride] | > 1 | –
O=C(O)C[C@H](O)C[C@H](O)/C=C/c1c(C2CC2)nc2ccccc2c1-c1ccc(F)cc1 [Pitavastatin] | > 1 | –
O[C@@H](COc1cccc2ncccc12)CN1CCN([C@@H]2c3ccccc3[C@@H]3[C@H](c4ccccc42)C3(F)F)CC1 [zosquidar, zosuquidar] | – | Effect on transport of P-gp substrate digoxin (P-gp): canceled
Cc1onc(-c2ccccc2)c1C(=O)N[C@@H]1C(=O)N2[C@@H]1SC(C)(C)[C@@H]2C(=O)O [Oxacillin] | < 1 | –

Now from value to molecule, other results behind:

Papp at 10 μM [1] [×10⁻⁶ cm/s] | Molecule | also measured
> 1 | CC(C)NCC(O)COc1cccc2ccccc12 (stereo not drawn) [Propranolol] | –
> 1 | CN(CCOc1ccc(CC2SC(=O)NC2=O)cc1)c1ccccn1 (stereo not drawn) [Rosiglitazone] | –
> 1 | COCCc1ccc(OCC(O)CNC(C)C)cc1 (stereo not drawn) [Metoprolol] | –
> 1 | NC(=O)N1c2ccccc2C=Cc2ccccc21 [Carbamazepine] | –
